Measured values as given in ChEMBL document CHEMBL5528086, “Unraveling the Promise of RET Inhibitors in Precision Cancer Therapy by Targeting RET Mutations” (J Med Chem, 2024).
pIC50: −log10 of the molar value. Blank lines part the entries; values can stand above or below the compound they belong to.

Tests used:
[1] = biological target: Vascular endothelial growth factor receptor 2 (Homo sapiens, UniProt P35968); assay: Inhibition of wild type VEGFR2 (unknown origin) expressed in baculovirus infected insect cells using biotinylated-GGGGQDGKDYIVLPI peptide as substrate incubated for 1 to 4 hrs by TRF assay; design: species or system Insect cell
[2] = biological target: T1, Proto-oncogene tyrosine-protein kinase receptor Ret (Homo sapiens, UniProt P07949, V804M); assay: Inhibition of RET V804M mutant (unknown origin) by KINOMEscan assay
T1 sequence (P07949 29-1114 V804M limits assumed): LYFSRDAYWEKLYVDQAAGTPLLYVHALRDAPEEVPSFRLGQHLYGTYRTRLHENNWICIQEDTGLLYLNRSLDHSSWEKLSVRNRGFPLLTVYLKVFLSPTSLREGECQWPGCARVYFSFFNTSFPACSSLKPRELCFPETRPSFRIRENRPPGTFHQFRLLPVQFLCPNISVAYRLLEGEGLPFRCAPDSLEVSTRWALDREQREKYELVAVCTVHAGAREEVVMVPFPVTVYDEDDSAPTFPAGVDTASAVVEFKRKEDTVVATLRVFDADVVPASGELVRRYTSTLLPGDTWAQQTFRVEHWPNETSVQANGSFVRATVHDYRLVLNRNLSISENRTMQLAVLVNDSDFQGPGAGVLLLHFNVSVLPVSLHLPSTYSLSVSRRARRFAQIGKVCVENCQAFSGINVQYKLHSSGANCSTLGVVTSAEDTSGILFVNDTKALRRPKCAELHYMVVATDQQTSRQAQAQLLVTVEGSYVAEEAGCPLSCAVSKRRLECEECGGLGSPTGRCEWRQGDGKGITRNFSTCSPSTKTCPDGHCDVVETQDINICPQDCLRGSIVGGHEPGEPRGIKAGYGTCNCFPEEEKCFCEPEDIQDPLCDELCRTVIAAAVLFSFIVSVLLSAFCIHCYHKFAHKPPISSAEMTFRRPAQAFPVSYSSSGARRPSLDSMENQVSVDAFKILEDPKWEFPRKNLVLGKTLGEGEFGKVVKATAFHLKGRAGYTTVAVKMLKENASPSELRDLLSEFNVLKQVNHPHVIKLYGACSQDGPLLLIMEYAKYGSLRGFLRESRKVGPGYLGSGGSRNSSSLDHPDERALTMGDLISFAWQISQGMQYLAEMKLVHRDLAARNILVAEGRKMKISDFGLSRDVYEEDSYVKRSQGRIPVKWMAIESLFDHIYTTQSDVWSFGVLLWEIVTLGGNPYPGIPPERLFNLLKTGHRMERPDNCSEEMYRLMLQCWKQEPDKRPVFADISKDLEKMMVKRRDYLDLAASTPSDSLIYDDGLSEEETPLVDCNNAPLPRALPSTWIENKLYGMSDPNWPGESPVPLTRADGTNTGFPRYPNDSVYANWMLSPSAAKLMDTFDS

[3] = biological target: T2, Proto-oncogene tyrosine-protein kinase receptor Ret (Homo sapiens, UniProt P07949); assay: Inhibition of wild type human RET by KINOMEscan assay
T2 sequence (P07949 whole entry): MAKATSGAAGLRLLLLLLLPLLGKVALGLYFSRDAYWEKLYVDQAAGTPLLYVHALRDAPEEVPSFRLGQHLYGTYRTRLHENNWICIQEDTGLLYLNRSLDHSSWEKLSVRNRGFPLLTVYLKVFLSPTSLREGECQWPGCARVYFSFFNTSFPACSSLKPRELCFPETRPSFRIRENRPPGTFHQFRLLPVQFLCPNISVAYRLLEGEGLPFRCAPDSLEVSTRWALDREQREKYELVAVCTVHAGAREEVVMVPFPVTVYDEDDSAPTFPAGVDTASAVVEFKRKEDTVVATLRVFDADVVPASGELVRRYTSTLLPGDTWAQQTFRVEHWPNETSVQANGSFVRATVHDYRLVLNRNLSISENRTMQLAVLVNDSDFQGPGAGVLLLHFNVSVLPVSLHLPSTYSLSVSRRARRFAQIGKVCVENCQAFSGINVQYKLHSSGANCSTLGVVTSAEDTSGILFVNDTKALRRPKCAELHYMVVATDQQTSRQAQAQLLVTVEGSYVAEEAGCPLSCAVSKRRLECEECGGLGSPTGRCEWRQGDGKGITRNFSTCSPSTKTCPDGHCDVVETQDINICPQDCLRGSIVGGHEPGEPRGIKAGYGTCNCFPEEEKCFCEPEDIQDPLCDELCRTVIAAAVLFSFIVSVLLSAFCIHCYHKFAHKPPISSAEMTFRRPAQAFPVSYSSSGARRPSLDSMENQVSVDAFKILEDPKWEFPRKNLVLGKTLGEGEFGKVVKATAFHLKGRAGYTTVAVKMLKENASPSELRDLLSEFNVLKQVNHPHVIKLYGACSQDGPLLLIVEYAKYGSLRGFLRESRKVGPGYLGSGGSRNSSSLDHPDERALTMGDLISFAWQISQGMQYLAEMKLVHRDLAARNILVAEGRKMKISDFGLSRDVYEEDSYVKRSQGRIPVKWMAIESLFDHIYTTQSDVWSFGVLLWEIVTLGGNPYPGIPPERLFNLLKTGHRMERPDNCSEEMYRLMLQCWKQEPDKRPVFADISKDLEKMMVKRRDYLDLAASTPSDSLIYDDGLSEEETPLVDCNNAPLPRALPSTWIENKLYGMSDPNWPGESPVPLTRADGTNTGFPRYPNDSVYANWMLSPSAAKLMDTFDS

[4] = tested on: Proto-oncogene tyrosine-protein kinase receptor Ret (Homo sapiens), P07949 [S904F]; assay: Inhibition of RET S904F mutant (unknown origin) at 1 nM relative to control
[5] = tested on: Proto-oncogene tyrosine-protein kinase receptor Ret (Homo sapiens), P07949 [V804L]; assay: Inhibition of RET V804L mutant (unknown origin) at 4 nM by enzymatic assay relative to control
Proto-oncogene tyrosine-protein kinase receptor Ret (Homo sapiens), P07949 [V804L], sequence (P07949 whole entry V804L): as the sequence (P07949 whole entry) above, with V804L counted along it

[6] = Antiproliferative activity against human LC2 cells assessed as reduction in cell growth measured for 48 hrs by MTT assay; assay type: functional, cell-based; conditions: LC2, 48 h
[7] = biological target: Coiled-coil domain-containing protein 6/Tyrosine-protein kinase receptor RET (Homo sapiens, UniProt P07949); assay: Inhibition of CCDC6-RET (unknown origin); assay type: protein assay
[8] = biological target: T2, Proto-oncogene tyrosine-protein kinase receptor Ret; assay: Inhibition of full length His-tagged human recombinant RET expressed in baculovirus infected Sf9 cells
[9] = biological target: T2, Proto-oncogene tyrosine-protein kinase receptor Ret; assay: Inhibition of GST-tagged wild type RET (unknown origin) expressed in Sf9 cells
[10] = biological target: T1, Proto-oncogene tyrosine-protein kinase receptor Ret; assay: Inhibition of RET V804M mutant (unknown origin) expressed in Sf9 cells by enzymatic assay
[11] = biological target: Proto-oncogene tyrosine-protein kinase receptor Ret (Homo sapiens, UniProt P07949, G810A); assay: Inhibition of RET G810A mutant (unknown origin)
[12] = biological target: Proto-oncogene tyrosine-protein kinase receptor Ret (Homo sapiens, UniProt P07949, G810D); assay: Inhibition of RET G810D mutant (unknown origin)
[13] = biological target: Proto-oncogene tyrosine-protein kinase receptor Ret (Homo sapiens, UniProt P07949, G810S); assay: Inhibition of RET G810S mutant (unknown origin)
[14] = biological target: Proto-oncogene tyrosine-protein kinase receptor Ret (Homo sapiens, UniProt P07949, G810V); assay: Inhibition of RET G810V mutant (unknown origin)
[15] = biological target: Proto-oncogene tyrosine-protein kinase receptor Ret (Homo sapiens, UniProt P07949, G810C); assay: Inhibition of RET G810C mutant (unknown origin)
Proto-oncogene tyrosine-protein kinase receptor Ret (Homo sapiens, UniProt P07949, G810C), sequence (P07949 29-1114 G810C limits assumed): as the sequence (P07949 29-1114 V804M limits assumed) above, with M776V, G782C counted along it

[16] = biological target: Proto-oncogene tyrosine-protein kinase receptor Ret (Homo sapiens, UniProt P07949, G810R); assay: Inhibition of RET G810R mutant (unknown origin)
[17] = biological target: ALK tyrosine kinase receptor (Homo sapiens, UniProt Q9UM73); assay: Inhibition of wild type ALK (unknown origin) by enzymatic assay
[18] = biological target: T2, Proto-oncogene tyrosine-protein kinase receptor Ret; assay: Inhibition of wild type His-tagged human RET by ADP-Glo assay
[19] = biological target: Proto-oncogene tyrosine-protein kinase receptor Ret (Homo sapiens, UniProt P07949, V804L); assay: Inhibition of RET V804L mutant (unknown origin)
[20] = tested on: Proto-oncogene tyrosine-protein kinase receptor Ret (Homo sapiens), P07949 [V804L]; assay: Inhibition of RET V804L mutant (unknown origin) at 4 nM relative to control
[21] = Inhibition of CCDC6-RET (unknown origin)

Compound: Cn1cc(-c2ccc3c(c2)ncn3-c2ccc(CC(=O)Nc3cc(C(C)(C)C)on3)cc2)cn1
pIC50 [1]: > 9.00 | pIC50 [2]: > 9.00 | pIC50 [3]: > 9.00

Compound: Cc1nc2cnc(N)c(C#Cc3cncc(C(=O)Nc4ccc(CN5CCN(C)CC5)c(C(F)(F)F)c4)c3)c2nc1C
pIC50 [9]: 8.75 | pIC50 [10]: 7.82 | pIC50 [11]: 8.73 | pIC50 [12]: 8.10 | pIC50 [13]: 8.00 | pIC50 [14]: 8.44 | pIC50 [15]: 7.94 | pIC50 [16]: 7.74

Compound: CCc1cc2c(cc1-c1ccn(CCCN(C)C)n1)C(C)(C)c1[nH]c3cc(C#N)ccc3c1C2=O
pIC50 [17]: 10.00 | pIC50 [18]: 8.70 | pIC50 [19]: 8.05

Compound: CC1(C)c2cc(C3CCN(CC4CCOCC4)CC3)ccc2C(=O)c2c1[nH]c1cc(C#N)ccc21
pIC50 [21]: 7.36

More lines, main results first:

inhibition [4]: 60% | inhibition [5]: 98% | pIC50 [7]: 8.52 | pIC50 [8]: 8.50
Compound: CN1CCN(Cc2ccc(NC(=O)c3cncc(C#Cc4cnc(N)c5ncccc45)c3)cc2C(F)(F)F)CC1
pIC50 [6]: 8.52

inhibition [20]: 40%
Compound: Cc1ccc(C(=O)Nc2ccc(CN3CCN(C)CC3)c(C(F)(F)F)c2)cc1C#Cc1cnc(N)c2ncccc12
